From patent US11465990B2, “Heterocyclic antiestrogens” (SUN PHARMA ADVANCED RESEARCH COMPANY LIMITED, priority 2015, dated 2022) come the findings set out here.

This assay concerns MCF-7 cells. Briefly: MCF-7 cell growth inhibition assay. Format: cell-based. As to conditions: MCF-7 cells plated in presence of estradiol (1 nM), five days incubation, Presto Blue viability; for inhibition at 1 µM: Homo sapiens, MCF7, 120 h; for % inhibition: at 1 μM. The method, then: MCF-7 Cell Growth Inhibition Assay
MCF-7 cells were plated in 96 well plate in the presence of estradiol (1 nM) and incubated overnight. After 24 hours test compound was added at various concentrations and incubated for five days. On the fifth day, cell viability was evaluated using Presto Blue Cell Viability Reagent. Percentage growth inhibition was calculated as follows: 100−[(O.D. of sample)*100/O.D. of vehicle control] wherein O.D. is optical density.

With `CC1=C(c2cccc(O)c2)C(c2ccc(/C=C/CNCCCCCCCCF)cc2)Oc2ccc(O)cc21` (centres unmarked) [Compound 49], the inhibition at 1 µM came to 67.3%.

Regarding `CC1=C(c2cccc(O)c2)C(c2ccc(C#CCN3CCN(C)CC3)cc2)Oc2ccc(O)cc21` (centres unmarked) [Compound 26], the inhibition at 1 µM came out at 55.2%.

On to `CC1=C(c2cccc(O)c2)C(c2ccc(/C=C\CNCCCCCCCCCSCCCC(F)(F)C(F)(F)F)cc2)Oc2ccc(O)cc21` (centres unmarked) [Compound 7, 3-(3-hydroxyphenyl)-4-methyl-2-(4-{(Z)-3-[9-(4,4,5,5,5-pentafluoropentylsulfanyl)nonylamino]propenyl}phenyl)-2H-chromen-6-ol], for which the inhibition at 1 µM was 85.3%.

On to `CC1=C(c2cccc(OC(=O)C(C)(C)C)c2)C(c2ccc(/C=C\CN3CC[C@@H](C)C3)cc2)Oc2ccc(OC(=O)C(C)(C)C)cc21` (stereo partly drawn) [Compound 19, 2,2-Dimethylpropionic Acid 3-[3-(2,2-dimethylpropionyloxy)phenyl]-4-methyl-2-{4-[(Z)-3-((R)-3-methylpyrrolidin-1-yl)propenyl]phenyl}-2H-chromen-6-yl ester], for which the inhibition at 1 µM turned out to be 29.4%.

With `CC1=C(c2cccc(O)c2)C(c2ccc(/C=C\CNCCN(C)C)cc2)Oc2ccc(O)cc21` (centres unmarked) [Compound 6], the inhibition at 1 µM turned out to be 55.5%.

For the compound `CC1=C(c2cccc(O)c2)C(c2ccc(/C=C\CN3CCC(C(F)(F)F)C3)cc2)Oc2ccc(O)cc21` (centres unmarked) [Compound 66], the inhibition at 1 µM came to 12.9%.

Consider `CC1=C(c2cccc(O)c2)C(c2ccc(/C=C\CN(C)C)cc2)Oc2ccc(O)cc21` (centres unmarked) [Compound 2], for which the inhibition at 1 µM was found to be 62.2%.

As to `CC1=C(c2cccc(O)c2)C(c2ccc(/C=C/CN3CCSCC3)cc2)Oc2ccc(O)cc21` (centres unmarked) [Compound 33], the inhibition at 1 µM was 22.8%.

Turning to `CC1=C(c2cccc(O)c2)C(c2ccc(/C=C/CN(C)CCCCCCCCC(F)F)cc2)Oc2ccc(O)cc21` (centres unmarked) [Compound 70], the inhibition at 1 µM worked out at 16.9%.

In the case of `CC1=C(c2cccc(O)c2)C(c2ccc(/C=C\CNCCCCCCCCCCF)cc2)Oc2ccc(O)cc21` (centres unmarked) [Compound 43], the inhibition at 1 µM was 47.9%.

Take `CC1=C(c2cccc(O)c2)C(c2ccc(/C=C/CNCCCCOCCCCF)cc2)Oc2ccc(O)cc21` (centres unmarked) [Compound 63]: the inhibition at 1 µM worked out at 41.8%.

On to `CC1=C(c2cccc(O)c2)C(c2ccc(C#CCCN3CCN(C)CC3)cc2)Oc2ccc(O)cc21` (centres unmarked) [Compound 27], for which the inhibition at 1 µM stood at 28.8%.

Consider `CC1=C(c2cccc(O)c2)C(c2ccc(/C=C/CNCCCCCCCCC(F)F)cc2)Oc2ccc(O)cc21` (centres unmarked) [Compound 44], for which the inhibition at 1 µM amounted to 67.2%.

As to `CC1=C(c2cccc(O)c2)C(c2ccc(/C=C\CNCCCCOCCCCF)cc2)Oc2ccc(O)cc21` (centres unmarked) [Compound 62], the inhibition at 1 µM stood at 53.1%.

For `CC1=C(c2cc(O)cc(F)c2)C(c2ccc(/C=C\CN3CC[C@@H](C)C3)cc2)Oc2ccc(O)cc21` (some centres unmarked) [Compound 81], the inhibition at 1 µM came out at 77.4%.

In the case of `CC1=C(c2cccc(O)c2)C(c2ccc(/C=C\CN3CCN(C)CC3)cc2)Oc2ccc(O)cc21` (centres unmarked) [Compound 14], the inhibition at 1 µM came to 79.1%.

Take `CC1=C(c2cccc(O)c2)C(c2ccc(/C=C/CN3CCC(C(F)(F)F)C3)cc2)Oc2ccc(O)cc21` (centres unmarked) [Compound 65]: the inhibition at 1 µM stood at 55.4%.

Regarding `CC1=C(c2cccc(O)c2)C(c2ccc(/C=C\CNCCCCCCCCF)cc2)Oc2ccc(O)cc21` (centres unmarked) [Compound 50], the inhibition at 1 µM stood at 57.3%.

As for `CC1=C(c2cccc(O)c2)C(c2ccc(/C=C/CNCCCCCCCCCCF)cc2)Oc2ccc(O)cc21` (centres unmarked) [Compound 41], the inhibition at 1 µM worked out at 77.6%.

For `CC1=C(c2cccc(O)c2)C(c2ccc(/C=C\CN(C)CCCCCCCCCF)cc2)Oc2ccc(O)cc21` (centres unmarked) [Compound 48], the inhibition at 1 µM was determined as 58.9%.

For the compound `CCCCCCCCCCCCNC/C=C\c1ccc(C2Oc3ccc(O)cc3C(C)=C2c2cccc(O)c2)cc1` (centres unmarked) [Compound 3], the inhibition at 1 µM stood at 68.5%.

As for `CNC/C(C)=C/CCC=C(C)C` [Compound 23], the inhibition at 1 µM is 36.8%.

As to `CC1=C(c2cccc(O)c2)C(c2ccc(/C=C\CN3CCCCC3)cc2)Oc2ccc(O)cc21` (centres unmarked) [Compound 11, 3-(3-hydroxyphenyl)-4-methyl-2-[4-((Z)-3-piperidin-1-ylpropenyl)phenyl]-2H-chromen-6-ol], the inhibition at 1 µM is 65.1%.

Consider `CC1=C(c2cccc(O)c2)C(c2ccc(C#CCN3CCCCC3)cc2)Oc2ccc(O)cc21` (centres unmarked) [Compound 25, 3-(3-hydroxyphenyl)-4-methyl-2-[4-(3-piperidin-1-yl-prop-1-ynyl)phenyl]-2H-chromen-6-ol], for which the inhibition at 1 µM stood at 42.5%.

Take `CC1=C(c2cccc(O)c2)C(c2ccc(/C=C\CN3CCOCC3)cc2)Oc2ccc(O)cc21` (centres unmarked) [Compound 13]: the inhibition at 1 µM came out at 5.5%.

With “3-(3-Methoxy phenyl)-4-methyl-2-{4-[(Z)-3-((R)-3-methyl pyrrolidin-1-yl)propenyl]phenyl}-2H-chromen-6-ol [Compound 28]”, the “% inhibition” value is recorded as 55.9%.

`CC1=C(c2cccc(O)c2)C(c2ccc(C#CCNCCCCCCCCF)cc2)Oc2ccc(O)cc21` (centres unmarked) [Compound 51]: the inhibition at 1 µM is 61.1%.

On to `CC1=C(c2cccc(O)c2)C(c2ccc(/C=C\CN3CC[C@@H](CO)C3)cc2)Oc2ccc(O)cc21` (some centres unmarked) [Compound 72], for which the inhibition at 1 µM stood at 31.9%.

Take `CCCNC1CCN(C)C1` (centres unmarked) [Compound 32]: the “% inhibition” value came to 27.4%.

On to `CC1=C(c2cccc(O)c2)C(c2ccc(/C=C\CN3CCC(C)CC3)cc2)Oc2ccc(O)cc21` (centres unmarked) [Compound 34], for which the inhibition at 1 µM is 35%.

In the case of `CC1=C(c2cccc(O)c2)C(c2ccc(C#CCN(C)CCCCCCCCCF)cc2)Oc2ccc(O)cc21` (centres unmarked) [Compound 53], the inhibition at 1 µM came out at 38.6%.

In the case of `CC1=C(c2cccc(O)c2)C(c2ccc(/C=C/CN3CC[C@@H](CF)C3)cc2)Oc2ccc(O)cc21` (some centres unmarked) [Compound 59], the inhibition at 1 µM came out at 73.5%.

Consider `CC1=C(c2cccc(O)c2)C(c2ccc(/C=C\CN3CC[C@@H](C)C3)cc2)Oc2ccc(O)cc21` (some centres unmarked) [Compound 9], for which the inhibition at 1 µM turned out to be 79.8%.

On to `CC1=C(c2cccc(O)c2)C(c2ccc(C#CCN3CC[C@@H](C)C3)cc2)Oc2ccc(O)cc21` (some centres unmarked) [Compound 24], for which the inhibition at 1 µM came out at 62.5%.

For `CC1=C(c2cccc(O)c2)C(c2ccc(/C=C\C(C)N3CCCC3)cc2)Oc2ccc(O)cc21` (centres unmarked) [Compound 40], the inhibition at 1 µM worked out at 29.3%.

Take `CC1=C(c2cccc(O)c2)C(c2ccc(/C=C/CNCCCCCCCCCSCCCC(F)(F)C(F)(F)F)cc2)Oc2ccc(O)cc21` (centres unmarked) [Compound 8]: the inhibition at 1 µM was 59.1%.

Consider `CC1=C(c2cccc(O)c2)C(c2ccc(/C=C\CN3CCN(CCO)CC3)cc2)Oc2ccc(O)cc21` (centres unmarked) [Compound 17], for which the inhibition at 1 µM was found to be 43.4%.

In the case of `CC1=C(c2cccc(O)c2)C(c2ccc(/C=C/CNCCCCCCCCCF)cc2)Oc2ccc(O)cc21` (centres unmarked) [Compound 39, 2-{4-[(E)-3-(9-Fluorononylamino)propenyl]phenyl}-3-(3-hydroxyphenyl)-4-methyl-2H-chromen-6-ol], the inhibition at 1 µM amounted to 89.7%.

For the compound `CC1=C(c2cccc(O)c2)C(c2ccc(/C=C\CN(C)CCCCCCCCC(F)F)cc2)Oc2ccc(O)cc21` (centres unmarked) [Compound 71], the inhibition at 1 µM is 56.8%.

Take `CCCCCCCCCCCCNCC#Cc1ccc(C2Oc3ccc(O)cc3C(C)=C2c2cccc(O)c2)cc1` (centres unmarked) [Compound 22]: the inhibition at 1 µM worked out at 29%.

On to `CNC/C=C\c1ccc(C2Oc3ccc(O)cc3C(C)=C2c2cccc(O)c2)cc1` (centres unmarked) [Compound 1], for which the inhibition at 1 µM came to 64.1%.

For `CC1=C(c2cccc(O)c2)C(c2ccc(/C=C/CN3CC[C@@H](CO)C3)cc2)Oc2ccc(O)cc21` (some centres unmarked) [Compound 60], the inhibition at 1 µM stood at 55%.

`CC1=C(c2cccc(O)c2)C(c2ccc(C#CCNCCCCCCCCCCF)cc2)Oc2ccc(O)cc21` (centres unmarked) [Compound 52]: the inhibition at 1 µM amounted to 74.3%.

Consider `CC1=C(c2cc(F)cc(F)c2)C(c2ccc(/C=C\CN3CCN(C)CC3)cc2)Oc2ccc(O)cc21` (centres unmarked) [Compound 83], for which the inhibition at 1 µM was determined as 12.9%.

Consider `CC1=C(c2cccc(O)c2)C(c2ccc(/C=C/CNCCCCCCCCCF)cc2)Oc2ccc(O)cc21` (centres unmarked) [Compound 80], for which the “% inhibition” value came to 53%.

Turning to `CC1=C(c2cccc(O)c2)C(c2ccc(/C=C\CN3CCC(F)(F)C3)cc2)Oc2ccc(O)cc21` (centres unmarked) [Compound 57], the inhibition at 1 µM was found to be 24.3%.

As for `CC1=C(c2cccc(O)c2)C(c2ccc(/C=C\CNCCCCCCCCCF)cc2)Oc2ccc(O)cc21` (centres unmarked) [Compound 38], the inhibition at 1 µM was determined as 49.9%.

`CC1=C(c2cccc(O)c2)C(c2ccc(/C=C/CN(C)CCCCCCCCCF)cc2)Oc2ccc(O)cc21` (centres unmarked) [Compound 45]: the “% inhibition” value came out at 71.4%.

`CC1=C(c2cccc(O)c2)C(c2ccc(C#CCN3CCC(F)(F)C3)cc2)Oc2ccc(O)cc21` (centres unmarked) [Compound 56]: the inhibition at 1 µM came to 44.9%.

With `CC1=C(c2cccc(O)c2)C(c2ccc(/C=C\CNCCCCCCCCC(F)F)cc2)Oc2ccc(O)cc21` (centres unmarked) [Compound 46], the inhibition at 1 µM came out at 88.6%.

Take `CC1=C(c2cccc(O)c2)C(c2ccc(/C=C\CN3CC[C@@H](CF)C3)cc2)Oc2ccc(O)cc21` (some centres unmarked) [Compound 55]: the “% inhibition” value worked out at 67.1%.

As to `COc1cccc(C2=C(C)c3cc(O)ccc3OC2c2ccc(/C=C/CNCCCCCCCCCF)cc2)c1` (centres unmarked) [Compound 47], the inhibition at 1 µM is 67.4%.

For `COc1cccc(C2=C(C)c3cc(OC)ccc3OC2c2ccc(/C=C\CN3CC[C@@H](C)C3)cc2)c1` (stereo partly drawn) [Compound 20, (R)-1-((Z)-3-{4-[6-methoxy-3-(3-methoxyphenyl)-4-methyl-2H-chromen-2-yl]phenyl}allyl)-3-methylpyrrolidine], the inhibition at 1 µM is 15.4%.

As for `CC1=C(c2cccc(O)c2)C(c2ccc(/C=C\CN3CCC[C@@H](N)C3)cc2)Oc2ccc(O)cc21` (some centres unmarked) [Compound 16], the inhibition at 1 µM amounted to 56.7%.

Regarding `CC1=C(c2cccc(O)c2)C(c2ccc(/C=C\CN3CCC(CF)(CF)C3)cc2)Oc2ccc(O)cc21` (centres unmarked) [Compound 67], the inhibition at 1 µM turned out to be 30.1%.

In the case of `CC1=C(c2cccc(O)c2)C(c2ccc(/C=C/CNCCCCCCCCCF)cc2)Oc2ccc(O)cc21` (centres unmarked) [Compound 79], the “% inhibition” value was 64.8%.
